“And” between values parts separate entries of the source, which are not always exact repeats. Identical values can stand only once. Toxic doses and inconclusive results are not listed.
Tested on: BDF1 mice, P388 leukemia ip, median survival T/C
Experiment: NCI In Vivo Anticancer Drug Screen. Data for tumor model P388 Leukemia (intraperitoneal) in B6D2F1 (BDF1) mice
Conditions: endpoint: median survival time, higher = longer survival
In short: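 Steps: implant the tumour, treat one group with compound and another with vehicle, record survival, then divide treated by control.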

[1] = dose: 50.0 mg/kg/injection, schedule: Q01DX009 (ip), vehicle: saline with Tween-80
[2] = dose: 100.0 mg/kg/injection, schedule: Q01DX009 (ip), vehicle: saline with Tween-80
[3] = dose: 25.0 mg/kg/injection, schedule: Q01DX009 (ip), vehicle: Klucel (hydroxypropylcellulose) (HPC)
[4] = dose: 50.0 mg/kg/injection, schedule: Q01DX009 (ip), vehicle: Klucel (hydroxypropylcellulose) (HPC)
[5] = dose: 100.0 mg/kg/injection, schedule: Q01DX009 (ip), vehicle: Klucel (hydroxypropylcellulose) (HPC)
[6] = dose: 200.0 mg/kg/injection, schedule: Q01DX009 (ip), vehicle: Klucel (hydroxypropylcellulose) (HPC)
[7] = dose: 100.0 mg/kg/injection, schedule: Q04DX003 (ip), vehicle: Klucel (hydroxypropylcellulose) (HPC)
[8] = dose: 200.0 mg/kg/injection, schedule: Q04DX003 (ip), vehicle: Klucel (hydroxypropylcellulose) (HPC)
[9] = dose: 400.0 mg/kg/injection, schedule: Q04DX003 (ip), vehicle: Klucel (hydroxypropylcellulose) (HPC)

Question: Which results are given for `CCSc1c(S)cnn(C)c1=O`?
Answer: T/C (dose: 50.0 mg/kg/injection, schedule: Q01DX005 (ip), vehicle: saline with Tween-80): 90 % of control; T/C (dose: 100.0 mg/kg/injection, schedule: Q01DX005 (ip), vehicle: saline with Tween-80): 90 % of control; T/C (dose: 200.0 mg/kg/injection, schedule: Q01DX005 (ip), vehicle: saline with Tween-80): 97 % of control

Question: What does the source list for `Cc1cccc(N2CCN(CCC#N)CC2)c1`?
Answer: T/C (dose: 25.0 mg/kg/injection, schedule: Q01DX009 (ip), vehicle: saline with Tween-80): 91 % of control; T/C [1]: 95 % of control; T/C [2]: 91 % of control

Question: Which T/C [3] does the source give for `CC(=O)O.O=CCO.[C-]#[O+].[C-]#[O+].[C-]#[O+].[C-]#[O+].[Rh].[Rh]` here?
Answer: 119 % of control

Question: What about the T/C [4] of the same compound?
Answer: 122 % of control

Question: Which results are given for `CC/C(=C(/CC)c1ccc(O)cc1)c1ccc(O)cc1`?
Answer: T/C (dose: 12.5 mg/kg/injection, schedule: Q01DX009 (ip), vehicle: carboxymethylcellulose (CMC)): 105 % of control; T/C (dose: 12.5 mg/kg/injection, schedule: Q01DX010 (ip), vehicle: saline): 100 % of control and 110 % of control; T/C (dose: 25.0 mg/kg/injection, schedule: Q01DX009 (ip), vehicle: carboxymethylcellulose (CMC)): 89 % of control and 93 % of control; T/C (dose: 25.0 mg/kg/injection, schedule: Q01DX010 (ip), vehicle: saline): 110 % of control; T/C (dose: 50.0 mg/kg/injection, schedule: Q01DX008 (ip), vehicle: saline with Tween-80): 114 % of control and 120 % of control; T/C (dose: 50.0 mg/kg/injection, schedule: Q01DX009 (ip), vehicle: carboxymethylcellulose (CMC)): 97 % of control; T/C (dose: 50.0 mg/kg/injection, schedule: Q01DX010 (ip), vehicle: saline): 100 % of control and 115 % of control; T/C (dose: 100.0 mg/kg/injection, schedule: Q01DX008 (ip), vehicle: saline with Tween-80): 110 % of control and 116 % of control; T/C (dose: 100.0 mg/kg/injection, schedule: Q01DX009 (ip), vehicle: carboxymethylcellulose (CMC)): 88 % of control and 90 % of control; T/C (dose: 100.0 mg/kg/injection, schedule: Q01DX010 (ip), vehicle: saline): 90 % of control and 95 % of control; T/C (dose: 200.0 mg/kg/injection, schedule: Q01DX008 (ip), vehicle: saline with Tween-80): 111 % of control and 112 % of control; T/C (dose: 200.0 mg/kg/injection, schedule: Q01DX009 (ip), vehicle: carboxymethylcellulose (CMC)): 114 % of control; T/C (dose: 400.0 mg/kg/injection, schedule: Q01DX008 (ip), vehicle: saline with Tween-80): 112 % of control

Question: Which T/C (dose: 0.5 mg/kg/injection, schedule: Q01DX009 (ip), vehicle: carboxymethylcellulose (CMC)) does the source give for `CC[C@@]1(O)C(=O)OCc2c1cc1n(c2=O)Cc2cc3c(OC)cccc3nc2-1` here?
Answer: 182 % of control

Question: And the T/C (dose: 1.0 mg/kg/injection, schedule: Q01DX009 (ip), vehicle: carboxymethylcellulose (CMC))?
Answer: 195 % of control

Question: How did the T/C (dose: 75.0 mg/kg/injection, schedule: Q04DX003 (ip), vehicle: other) turn out when `CC(=O)Oc1cc2c(cc1OC(C)=O)C(Br)CCCC2=O` (stereo unspecified) was run?
Answer: 95 % of control

Question: And the T/C (dose: 150.0 mg/kg/injection, schedule: Q04DX003 (ip), vehicle: other)?
Answer: 95 % of control

Question: What about the T/C (dose: 300.0 mg/kg/injection, schedule: Q04DX003 (ip), vehicle: other) of the same compound?
Answer: 109 % of control

Question: Which T/C (dose: 100.0 mg/kg/injection, schedule: Q04DX003 (sc), vehicle: steriod suspending solution) does the source give for `CC(C)CCCC(C)C1CCC2C3C(=O)C=C4CC(O)CCC4(C)C3CCC12C` (stereo unspecified) here?
Answer: 109 % of control

Question: And the T/C (dose: 200.0 mg/kg/injection, schedule: Q04DX003 (sc), vehicle: steriod suspending solution)?
Answer: 104 % of control

Question: And the T/C (dose: 400.0 mg/kg/injection, schedule: Q04DX003 (sc), vehicle: steriod suspending solution)?
Answer: 109 % of control

Question: Which T/C (dose: 100.0 mg/kg/injection, schedule: Q01DX001 (ip), vehicle: saline with Tween-80) does the source give for `CCCCCCCCCCCC(=O)Nc1ccc(C(=O)OCC)cc1` here?
Answer: 91 % of control

Question: And the T/C (dose: 200.0 mg/kg/injection, schedule: Q01DX001 (ip), vehicle: saline with Tween-80)?
Answer: 87 % of control

Question: And the T/C (dose: 400.0 mg/kg/injection, schedule: Q01DX001 (ip), vehicle: saline with Tween-80)?
Answer: 91 % of control

Question: Which T/C (dose: 3.12 mg/kg/injection, schedule: Q01DX009 (ip), vehicle: water) does the source give for `NC(=O)/C=C/c1c[nH]c2nccnc12` here?
Answer: 113 % of control

Question: What about the T/C (dose: 3.12 mg/kg/injection, schedule: Q04DX003 (ip), vehicle: water) of the same compound?
Answer: 106 % of control

Question: And the T/C (dose: 6.25 mg/kg/injection, schedule: Q01DX009 (ip), vehicle: water)?
Answer: 108 % of control

Question: What about the T/C (dose: 6.25 mg/kg/injection, schedule: Q04DX003 (ip), vehicle: water) of the same compound?
Answer: 105 % of control and 112 % of control

Question: What about the T/C (dose: 12.5 mg/kg/injection, schedule: Q01DX009 (ip), vehicle: water) of the same compound?
Answer: 121 % of control

Question: And the T/C (dose: 12.5 mg/kg/injection, schedule: Q04DX003 (ip), vehicle: water)?
Answer: 104 % of control and 106 % of control

Question: And the T/C (dose: 25.0 mg/kg/injection, schedule: Q04DX003 (ip), vehicle: water)?
Answer: 114 % of control

Question: Which results are given for `C(=C\CN(Cc1ccccc1)Cc1ccccc1)/CN(Cc1ccccc1)Cc1ccccc1`?
Answer: T/C [4]: 104 % of control; T/C [5]: 104 % of control; T/C [6]: 95 % of control

Question: Which T/C (dose: 100.0 mg/kg/injection, schedule: Q04DX003 (ip), vehicle: saline with Tween-80) does the source give for `Cc1ccc(NS(=O)(=O)c2ccccc2)nc1` here?
Answer: 112 % of control

Question: What about the T/C (dose: 200.0 mg/kg/injection, schedule: Q04DX003 (ip), vehicle: saline with Tween-80) of the same compound?
Answer: 116 % of control

Question: And the T/C (dose: 400.0 mg/kg/injection, schedule: Q04DX003 (ip), vehicle: saline with Tween-80)?
Answer: 96 % of control

Question: `CC(=O)NNc1ccc([N+](=O)[O-])cc1` was tested. Which T/C [5] did it give?
Answer: 100 % of control

Question: And the T/C [7]?
Answer: 105 % of control

Question: What about the T/C [6] of the same compound?
Answer: 90 % of control

Question: What about the T/C [8] of the same compound?
Answer: 90 % of control

Question: And the T/C (dose: 400.0 mg/kg/injection, schedule: Q01DX009 (ip), vehicle: Klucel (hydroxypropylcellulose) (HPC))?
Answer: 90 % of control

Question: And the T/C [9]?
Answer: 90 % of control

Question: For `COC1=C(c2ccccc2)C(=O)CCc2ccccc21`, which T/C [7] is on record?
Answer: 100 % of control

Question: And the T/C [8]?
Answer: 100 % of control

Question: What about the T/C [9] of the same compound?
Answer: 100 % of control

Question: For `CCCCN(CCCC)CCCNC(=O)OCC`, which T/C [3] is on record?
Answer: 100 % of control

Question: What about the T/C (dose: 25.0 mg/kg/injection, schedule: Q04DX003 (ip), vehicle: Klucel (hydroxypropylcellulose) (HPC)) of the same compound?
Answer: 100 % of control

Question: And the T/C [4]?
Answer: 110 % of control

Question: What about the T/C (dose: 50.0 mg/kg/injection, schedule: Q04DX003 (ip), vehicle: Klucel (hydroxypropylcellulose) (HPC)) of the same compound?
Answer: 104 % of control

Question: And the T/C [5]?
Answer: 115 % of control

Question: And the T/C [7]?
Answer: 109 % of control

Question: `O=C1NC(=O)C2C3C=CC(C12)C1C2C(=O)NC(=O)C2C31` (stereo unspecified) was tested. Which T/C (dose: 12.5 mg/kg/injection, schedule: Q01DX009 (ip), vehicle: saline with Tween-80) did it give?
Answer: 108 % of control

Question: And the T/C [1]?
Answer: 168 % of control

Question: Which T/C [7] does the source give for `ClC(Cl)(Cl)C1OCOC(C(Cl)(Cl)Cl)OCO1` (stereo unspecified) here?
Answer: 90 % of control

Question: And the T/C [8]?
Answer: 100 % of control

Question: And the T/C [9]?
Answer: 90 % of control

Question: What does the source list for `COC(/C=C\C(OC)OC)OC`?
Answer: T/C (dose: 4.1 mg/kg/injection, schedule: Q01DX009 (ip), vehicle: saline): 109 % of control; T/C (dose: 4.17 mg/kg/injection, schedule: Q01DX009 (ip), vehicle: saline): 100 % of control; T/C (dose: 6.25 mg/kg/injection, schedule: Q01DX009 (ip), vehicle: saline): 100 % of control and 122 % of control; T/C (dose: 9.3 mg/kg/injection, schedule: Q01DX009 (ip), vehicle: saline): 122 % of control; T/C (dose: 9.37 mg/kg/injection, schedule: Q01DX009 (ip), vehicle: saline): 95 % of control; T/C (dose: 12.5 mg/kg/injection, schedule: Q01DX009 (ip), vehicle: saline): 112 % of control; T/C (dose: 18.75 mg/kg/injection, schedule: Q04DX003 (ip), vehicle: saline): 110 % of control; T/C (dose: 25.0 mg/kg/injection, schedule: Q01DX009 (ip), vehicle: saline): 112 % of control; T/C (dose: 37.5 mg/kg/injection, schedule: Q04DX003 (ip), vehicle: saline): 105 % of control

Question: Which results are given for `CC(=O)Nc1ccc2[nH]c(C)cc(=O)c2c1`?
Answer: T/C (dose: 25.0 mg/kg/injection, schedule: Q01DX009 (ip), vehicle: water): 94 % of control; T/C (dose: 50.0 mg/kg/injection, schedule: Q01DX009 (ip), vehicle: water): 94 % of control; T/C (dose: 50.0 mg/kg/injection, schedule: Q04DX003 (ip), vehicle: water): 101 % of control; T/C (dose: 100.0 mg/kg/injection, schedule: Q01DX009 (ip), vehicle: water): 92 % of control; T/C (dose: 100.0 mg/kg/injection, schedule: Q04DX003 (ip), vehicle: water): 106 % of control; T/C (dose: 200.0 mg/kg/injection, schedule: Q01DX009 (ip), vehicle: water): 91 % of control; T/C (dose: 200.0 mg/kg/injection, schedule: Q04DX003 (ip), vehicle: water): 95 % of control; T/C (dose: 400.0 mg/kg/injection, schedule: Q01DX009 (ip), vehicle: water): 92 % of control; T/C (dose: 400.0 mg/kg/injection, schedule: Q04DX003 (ip), vehicle: water): 113 % of control

Question: How did the T/C [1] turn out when `CCOC1OCN(c2ccc(OC)cc2)CC1(C)C` (stereo unspecified) was run?
Answer: 98 % of control and 100 % of control

Question: And the T/C [2]?
Answer: 113 % of control and 114 % of control

Question: What about the T/C (dose: 200.0 mg/kg/injection, schedule: Q01DX009 (ip), vehicle: saline with Tween-80) of the same compound?
Answer: 116 % of control and 124 % of control
